According to ChEMBL document CHEMBL3399956, “Cell-based biological evaluations of 5-(3-bromo-4-phenethoxybenzylidene)thiazolidine-2,4-dione as promising wound healing agent” (Bioorg Med Chem, 2015):
Active and inactive are the calls of the source. The calls are words filed in the database; no cut-off is given here.

Experiments:
HaCaT [1] = assay: Induction of SCL expression in human HaCaT cells at 5 uM by qRT-PCR analysis relative to control; assay type: functional
[2] = target: T1, 15-hydroxyprostaglandin dehydrogenase [NAD(+)] (Homo sapiens) (UniProt P15428); assay: Inhibition of 15-PGDH in human A549 cells assessed as increase in PGE2 level at 5 uM after 12 hrs by immunoassay relative to control; assay type: cell-based
T1 sequence (whole entry): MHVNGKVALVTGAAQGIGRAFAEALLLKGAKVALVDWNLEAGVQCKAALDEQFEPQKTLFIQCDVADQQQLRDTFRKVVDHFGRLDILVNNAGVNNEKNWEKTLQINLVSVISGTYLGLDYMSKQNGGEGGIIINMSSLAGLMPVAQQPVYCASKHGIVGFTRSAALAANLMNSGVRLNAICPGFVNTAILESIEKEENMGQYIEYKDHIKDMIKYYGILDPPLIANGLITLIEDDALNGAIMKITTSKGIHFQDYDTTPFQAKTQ

[3] = target: T1, 15-hydroxyprostaglandin dehydrogenase [NAD(+)] (Homo sapiens); assay: Inhibition of 15-PGDH in human A549 cells assessed as increase in PGE2 level after 12 hrs by immunoassay; assay type: cell-based
HS27 [4] = assay: Induction of GATA2 expression in human HS27 cells at 5 uM by qRT-PCR analysis; assay type: functional, cell-based
HaCaT [5] = assay: In vitro wound healing effect on human HaCaT cells assessed as wound healing at 5 uM after 48 hrs in presence of 15-PGDH; assay type: functional, cell-based
[6] = target: T2, 15-hydroxyprostaglandin dehydrogenase [NAD(+)] (Homo sapiens, UniProt P15428); assay: Inhibition of 15-PGDH (unknown origin) by fluorescence spectrophotometry
T2 sequence (P15428 whole entry): T1 sequence (whole entry)

HS27 [7] = assay: Induction of SCL expression in human HS27 cells at 5 uM by qRT-PCR analysis; assay type: functional, cell-based
HS27 [8] = assay: Induction of RUNX1 expression in human HS27 cells at 5 uM by qRT-PCR analysis; assay type: functional, cell-based
HS27 [9] = assay: Induction of KDR expression in human HS27 cells at 5 uM by qRT-PCR analysis; assay type: functional, cell-based
HaCaT [10] = assay: In vitro wound healing effect on human HaCaT cells assessed as improvement wound healing at 5 uM after 48 hrs; assay type: functional, cell-based
HS27 [11] = assay: Induction of LMO2 expression in human HS27 cells at 5 uM by qRT-PCR analysis; assay type: functional, cell-based
HS27 [12] = assay: Induction of C-MYB expression in human HS27 cells at 5 uM by qRT-PCR analysis; assay type: functional, cell-based
HS27 [13] = assay: In vitro wound healing effect on human HS27 cells assessed as wound healing at 5 uM after 48 hrs; assay type: functional, cell-based

Row | Activity [2] | Activity [3] | IC50 [6] | fold change (FC) [2] | Compound | Activity (HaCaT [1]) | Activity (HS27 [4]) | inhibition (HaCaT [5]) | Activity (HS27 [7]) | Activity (HS27 [8]) | Activity (HS27 [9]) | Activity (HaCaT [10]) | Activity (HS27 [11]) | fold change (FC) (HaCaT [1]) | Activity (HS27 [12]) | inhibition (HS27 [13])
1 |  |  |  |  | COc1ccc2c(c1)c(CC(=O)O)c(C)n2C(=O)c1ccc(Cl)cc1 | inactive |  |  |  |  |  |  |  |  |  | 
2 | Active |  |  |  | O=C1NC(=O)/C(=C/c2ccc(OCCCc3ccccc3)c(Br)c2)S1 |  |  |  |  |  |  |  |  |  |  | 
3 | 451 pg/mL | Dose-dependent effect | 4 nM | 7 | O=C1NC(=O)/C(=C/c2ccc(OCCc3ccccc3)c(Br)c2)S1 |  | inactive | inactive | inactive | inactive | inactive | Active | inactive | 2 | inactive | inactive
